Half-life, CLint scaled and IC50 data for five compounds are collected here from US20150299219A1, “BICYCLIC PYRAZOLONE COMPOUNDS AND METHODS OF USE” (Calitor Sciences, LLC, priority 2014, published 2015).

A short description of series [1]: Compound stability in rat liver microsomes. The series is classed as in vitro ADME. The following applies: for half-life: pH 7.4, 0.5 mg protein/mL, NADPH, 37° C.; for CLint scaled: pH 7.4, in vivo CLint extrapolated. Here is the method: Human or rat liver microsomes incubations were conducted in duplicate in polypropylene tubes. The typical incubation mixtures consisted of human or rat liver microsomes (0.5 mg protein/mL), compounds of interest (5 μM) and NADPH (1.0 mM) in a total volume of 200 μL potassium phosphate buffer (PBS, 100 mM, pH 7.4). Compounds were dissolved in DMSO and diluted with PBS such that the final concentration of DMSO was 0.05%. The enzymatic reactions were commenced with the addition of protein after a 3-min preincubation and incubated in a water bath open to the air at 37° C. Reactions were terminated at various time points (0, 5, 10, 15, 30, 60 min) by adding equal volume of ice-cold acetonitrile. The samples were stored at −80° C. until LC/MS/MS assays.
The concentrations of compounds in the incubation mixtures of human or rat liver microsomes were determined by a LC/MS/MS method. The ranges of the linearity in the concentration range were determined for each tested compounds.
A parallel incubation was performed using denatured microsomes as the negative control, and reactions were terminated at various time points (0, 15, 60 min) after incubation at 37° C.
Dextromethorphan (70 μM) was selected as the positive control, and reactions were terminated at various time points (0, 5, 10, 15, 30, 60 min) after incubation at 37° C. Both positive and negative control samples were included in each assay to ensure the integrity of the microsomal incubation system.
Alternatively, the stability of some of the compounds disclosed herein in human (or rat) liver microsomes were also conducted in the following protocol. The incubations were conducted in duplicate in polypropylene tubes. The typical incubation mixtures consisted of liver microsomes (final concentration: 0.5 mg protein/mL), compounds (final concentration: 1.5 μM) in a total volume of 30 μL K-buffer (contain 1.0 mM EDTA, 100 mM, pH7.4). Compounds were dissolved in DMSO and diluted with K-buffer such that the final concentration of DMSO was 0.2%. The enzymatic reactions were commenced with the addition of 15 μL of NADPH (final concentration: 2 mM) after 10 min preincubation and incubated in a 37° C. incubator. Reactions were terminated at various time points (0, 15, 30, 60 min) by adding 135 μL acetonitrile (contain IS). Protein is removed by centrifugation with 4000 rpm, 10 min. Supernatant was collected for LCMS/MS analysis
In the above protocol, ketanserin (1 μM) was selected as the positive control, and reactions were terminated at various time points (0, 15, 30, 60 min) after incubation at 37° C. The positive control sample was included in each assay to ensure the integrity of the microsomal incubation system.
The concentrations of compounds in human or rat liver microsome incubations were plotted as a percentage of the relevant zero time point control for each reaction. The in vivo CLint were extrapolated (ref: Naritomi, Y.; Terashita, S.; Kimura, S.; Suzuki, A.; Kagayama, A.; and Sugiyama, Y.; Prediction of human hepatic clearance from in vivo animal experiments and in vitro metabolic studies with liver microsomes from animals and humans. Drug Metab. Dispos., 2001, 29: 1316-1324).

The next series concerns the target T1, c-Met (h) (Homo sapiens, UniProt P08581).
T1 construct: purchased Millipore UK Ltd
The series is described as follows: c-Met (h) kinase assay. It is filed as biochemical. The procedure: Kinase assays can be performed by measurement of incorporation of γ-^33P ATP into immobilized myelin basic protein (MBP). High binding white 384 well plates (Greiner) are coated with MBP (Sigma #M-1891) by incubation of 60 μL/well of 20 μg/mL MBP in Tris-buffered saline (TBS; 50 mM Tris pH 8.0, 138 mM NaCl, 2.7 mM KCl) for 24 h at 4° C. Plates are washed 3× with 100 μL TBS. Kinase reactions are carried out in a total volume of 34 μL in kinase buffer (5 mM Hepes pH 7.6, 15 mM NaCl, 0.01% bovine gamma globulin (Sigma #I-5506), 10 mM MgCl2, 1 mM DTT, 0.02% TritonX-100). Compound dilutions are performed in DMSO and added to assay wells to a final DMSO concentration of 1%. Each data point is measured in duplicate, and at least two duplicate assays are performed for each individual compound determination. Enzyme is added to final concentrations of 10 nM or 20 nM, for example. A mixture of unlabeled ATP and γ-^33P ATP is added to start the reaction (2×10^6 cpm of γ-^33P ATP per well (3000 Ci/mmole) and 10 μM unlabeled ATP, typically. The reactions are carried out for 1 h at room temperature with shaking. Plates are washed 7× with TBS, followed by the addition of 50 μL/well scintillation fluid (Wallac). Plates are read using a Wallac Trilux counter. This is only one format of such assays; various other formats are possible, as known to one skilled in the art.
The above assay procedure can be used to determine the IC50 for inhibition and/or the inhibition constant, Ki. The IC50 is defined as the concentration of compound required to reduce the enzyme activity by 50% under the condition of the assay. The IC50 value is estimated by preparing a 10 point curve using a 1/2 log dilution series (for example, a typical curve may be prepared using the following compound concentrations: 10 μM, 3 μM, 1 μM, 0.3 μM, 0.1 μM, 0.03 μM, 0.01 μM, 0.003 μM, 0.001 μM and 0 μM).
Met (h) is incubated with 8 mM MOPS pH 7.0, 0.2 mM EDTA, 250 μM KKKSPGEYVNIEFG, 10 mM MgAcetate and [γ-^33P-ATP] (specific activity approx. 500 cpm/pmol, concentration as required). The reaction is initiated by the addition of the MgATP mix. After incubation for 40 minutes at room temperature, the reaction is stopped by the addition of 3% phosphoric acid solution. 10 μL of the reaction is then spotted onto a P30 filtermat and washed three times for 5 minutes in 75 mM phosphoric acid and once in methanol prior to drying and scintillation counting.
The kinase assays described herein were performed at Millipore UK Ltd, Dundee Technology Park, Dundee DD2 1SW, UK.

T1 sequence (P08581 25-1390): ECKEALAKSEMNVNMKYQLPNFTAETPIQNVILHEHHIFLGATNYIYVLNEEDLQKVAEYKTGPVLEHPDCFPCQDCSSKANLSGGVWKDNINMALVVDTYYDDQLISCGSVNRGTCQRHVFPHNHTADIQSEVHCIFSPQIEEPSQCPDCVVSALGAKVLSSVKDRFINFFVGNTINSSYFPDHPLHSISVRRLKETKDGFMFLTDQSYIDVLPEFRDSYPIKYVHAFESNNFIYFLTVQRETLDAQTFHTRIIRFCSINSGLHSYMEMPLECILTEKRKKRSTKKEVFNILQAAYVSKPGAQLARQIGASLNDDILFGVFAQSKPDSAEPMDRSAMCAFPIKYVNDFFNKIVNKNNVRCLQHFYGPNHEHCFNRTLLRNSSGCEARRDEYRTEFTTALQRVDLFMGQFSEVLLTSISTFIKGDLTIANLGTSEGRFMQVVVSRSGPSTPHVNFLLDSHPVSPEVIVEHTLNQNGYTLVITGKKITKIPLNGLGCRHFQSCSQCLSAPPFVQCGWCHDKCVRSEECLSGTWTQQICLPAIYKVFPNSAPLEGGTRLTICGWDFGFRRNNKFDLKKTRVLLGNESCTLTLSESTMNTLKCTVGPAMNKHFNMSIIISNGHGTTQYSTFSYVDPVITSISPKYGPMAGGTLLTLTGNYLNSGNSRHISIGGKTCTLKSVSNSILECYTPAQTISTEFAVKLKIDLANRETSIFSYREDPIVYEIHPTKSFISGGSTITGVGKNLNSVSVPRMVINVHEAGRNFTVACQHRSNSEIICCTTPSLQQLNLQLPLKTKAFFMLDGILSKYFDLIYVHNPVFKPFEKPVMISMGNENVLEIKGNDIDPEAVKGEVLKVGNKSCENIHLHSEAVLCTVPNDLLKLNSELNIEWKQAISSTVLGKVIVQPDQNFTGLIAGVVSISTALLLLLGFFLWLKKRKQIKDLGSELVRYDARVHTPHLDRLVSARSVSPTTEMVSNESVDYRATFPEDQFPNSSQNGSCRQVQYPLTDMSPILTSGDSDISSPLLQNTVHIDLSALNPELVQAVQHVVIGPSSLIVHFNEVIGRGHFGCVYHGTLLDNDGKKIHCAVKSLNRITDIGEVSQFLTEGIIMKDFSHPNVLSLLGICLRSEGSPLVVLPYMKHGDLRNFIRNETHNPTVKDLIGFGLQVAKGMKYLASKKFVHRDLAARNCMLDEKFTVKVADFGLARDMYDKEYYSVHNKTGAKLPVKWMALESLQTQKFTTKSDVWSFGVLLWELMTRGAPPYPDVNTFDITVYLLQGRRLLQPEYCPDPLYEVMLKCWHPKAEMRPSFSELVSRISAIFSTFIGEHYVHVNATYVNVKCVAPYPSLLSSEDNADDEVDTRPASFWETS

Regarding `CC(=O)Nc1cc(Oc2ccc(NC(=O)c3c4n(n(-c5ccccc5)c3=O)CCC4)cc2)ccn1` [Ex. 3, N-(4-((2-acetamidopyridin-4-yl)oxy)phenyl)-2-oxo-1-phenyl-2,4,5,6-tetrahydro-1H-pyrrolo[1,2-b]pyrazole-3-carboxamide], in series [1], the half-life worked out at 5.7 h and the CLint scaled was 7.26 mL/min/kg. The same compound yielded an IC50 against c-Met (h) of 0.1 µM.

`O=C(Nc1ccc(Oc2ccnc(NC(=O)C3CC3)c2)cc1)c1c2n(n(-c3ccccc3)c1=O)CCOC2` [Ex. 19, N-(4-((2-(cyclopropanecarboxamido)pyridin-4-yl)oxy)phenyl)-2-oxo-1-phenyl-2,4,6,7-tetrahydro-1H-pyrazolo[5,1-c][1,4]oxazine-3-carboxamide]: in series [1], the half-life turned out to be 2.87 h and the CLint scaled was 14.4 mL/min/kg. For the same compound, on c-Met (h), the midpoint of inhibition, the IC50, lay at 0.041 µM.

Consider `O=C(Nc1ccc(Oc2ccnc(NC(=O)C3CC3)c2)cn1)c1c2n(n(-c3ccccc3)c1=O)CCC2` [Ex. 14, N-(5-((2-(cyclopropanecarboxamido)pyridin-4-yl)oxy)pyridin-2-yl)-2-oxo-1-phenyl-2,4,5,6-tetrahydro-1H-pyrrolo[1,2-b]pyrazole-3-carboxamide], for which, in series [1], the half-life is 3.32 h and the CLint scaled was 12.5 mL/min/kg. For the same compound, the midpoint of inhibition against c-Met (h), the IC50, lay at 0.021 µM.

As to `O=C(Nc1ccc(Oc2ccnc(NC(=O)C3CC3)c2)cc1)c1c2n(n(-c3ccccc3)c1=O)CCC2` [Ex. 2, N-(4-((2-(cyclopropanecarboxamido)pyridin-4-yl)oxy)phenyl)-2-oxo-1-phenyl-2,4,5,6-tetrahydro-1H-pyrrolo[1,2-b]pyrazole-3-carboxamide], in series [1], the half-life came out at 3.19 h and the CLint scaled is 13 mL/min/kg. In addition, half-maximal inhibition against c-Met (h) (IC50) was put at 0.026 µM.

In the case of `CC(=O)Nc1cc(Oc2ccc(NC(=O)c3c4n(n(-c5ccccc5)c3=O)CCOC4)nc2)ccn1` [Ex. 12, N-(5-((2-acetamidopyridin-4-yl)oxy)pyridin-2-yl)-2-oxo-1-phenyl-2,4,6,7-tetrahydro-1H-pyrazolo[5,1-c][1,4]oxazine-3-carboxamide], in series [1], the half-life is 16.6 h and the CLint scaled was 2.49 mL/min/kg. The same compound displayed an IC50 at c-Met (h) of 0.054 µM.
